Assay results reported in ChEMBL document CHEMBL6103654, “Design, Biological Characterization, and Discovery of Capromorelin Derivatives as Oral Growth Hormone Secretagogue Receptor Type 1a Agonist for the Treatment of Growth Hormone Deficiency” (J Med Chem, 2025).
The source made the active and inactive calls. No cut-off for these calls is given here.

Legend:
[1] = molecular target: Growth hormone secretagogue receptor type 1 (Rattus norvegicus, UniProt O08725); assay: Agonist activity at rat GHSR expressed in CHO cells incubated for 60 min by FLIPR assay; assay type: functional, cell-based
Growth hormone secretagogue receptor type 1, sequence (O08725 whole entry): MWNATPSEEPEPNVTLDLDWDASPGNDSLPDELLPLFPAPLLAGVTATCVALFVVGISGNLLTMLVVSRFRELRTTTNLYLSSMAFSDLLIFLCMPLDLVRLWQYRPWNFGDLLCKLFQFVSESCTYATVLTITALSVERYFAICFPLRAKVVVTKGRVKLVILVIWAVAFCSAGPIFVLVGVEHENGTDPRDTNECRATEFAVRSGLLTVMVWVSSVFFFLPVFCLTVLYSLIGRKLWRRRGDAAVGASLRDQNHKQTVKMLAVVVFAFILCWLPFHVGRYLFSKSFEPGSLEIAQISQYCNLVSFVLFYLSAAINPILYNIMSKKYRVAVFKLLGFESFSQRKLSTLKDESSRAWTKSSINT

[2] = Elimination half life in male Sprague-Dawley rat at 1 mg/kg, iv administered as single dose measured after 4 hrs; assay type: ADME, organism-based; details: in vivo, read-out: beta t1/2 (converted)
[3] = Volume of distribution in male Sprague-Dawley rat at 1 mg/kg, iv administered as single dose measured after 4 hrs; assay type: ADME, organism-based; details: in vivo
Rattus norvegicus [4] = assay: Induction of growth hormone level in Juvenile Sprague-Dawley rat blood at 0.1 mg/kg, po administered as single dose measured immediately by ELISA method (reference value: 28.5+/-8.7 ng/mL); assay type: functional
Rattus norvegicus [5] = assay: Induction of growth hormone level in Juvenile Sprague-Dawley rat blood at 0.1 mg/kg, po administered as single dose measured after 1 hr by ELISA method (reference value: 45.2+/-12.5 ng/mL); assay type: functional
Rattus norvegicus [6] = assay: Induction of growth hormone level in Juvenile Sprague-Dawley rat blood at 0.2 mg/kg, po administered as single dose measured after 10 mins by ELISA method (reference value: 23.2+/-5.6 ng/mL); assay type: functional
Rattus norvegicus [7] = assay: Induction of growth hormone level in Juvenile Sprague-Dawley rat blood at 0.2 mg/kg, po administered as single dose measured after 20 mins by ELISA method (reference value: 29.1+/-8.6 ng/mL); assay type: functional
Rattus norvegicus [8] = assay: Induction of growth hormone level in Juvenile Sprague-Dawley rat blood at 0.2 mg/kg, po administered as single dose measured after 2 hrs by ELISA method (reference value: 26.5+/-7.3 ng/mL); assay type: functional
Rattus norvegicus [9] = assay: Induction of growth hormone level in Juvenile Sprague-Dawley rat blood at 0.5 mg/kg, po administered as single dose measured after 1 hr by ELISA method (reference value: 45.2+/-12.5 ng/mL); assay type: functional
Rattus norvegicus [10] = assay: Induction of growth hormone level in Juvenile Sprague-Dawley rat blood at 0.5 mg/kg, po administered as single dose measured after 4 hrs by ELISA method (reference value: 32.5+/-4.5 ng/mL); assay type: functional
Rattus norvegicus [11] = assay: Induction of growth hormone level in Juvenile Sprague-Dawley rat blood by measuring AUC(0 to 40 mins) at 0.5 mg/kg, po administered as single dose by ELISA method (reference value: 20.2+/-4.3 ng/mL); assay type: functional, organism-based
Rattus norvegicus [12] = assay: Induction of growth hormone level in adult Sprague-Dawley rat blood at 0.1 mg/kg, po administered as single dose measured immediately by ELISA method (reference value: 12.6+/-4.4 ng/mL); assay type: functional
Rattus norvegicus [13] = assay: Induction of growth hormone level in adult Sprague-Dawley rat blood at 0.1 mg/kg, po administered as single dose measured after 20 mins by ELISA method (reference value: 4.9+/-1.1 ng/mL); assay type: functional
Rattus norvegicus [14] = assay: Induction of growth hormone level in adult Sprague-Dawley rat blood by measuring AUC(0 to 40 mins) at 0.5 mg/kg, po administered as single dose by ELISA method (reference value: 7.0+/-1.7 ng/mL); assay type: functional, organism-based
Rattus norvegicus [15] = assay: Induction of growth hormone level in adult Sprague-Dawley rat blood at 0.2 mg/kg, po administered as single dose measured after 10 mins by ELISA method (reference value: 13.7+/-7.2 ng/mL); assay type: functional
Rattus norvegicus [16] = assay: Induction of growth hormone level in adult Sprague-Dawley rat blood at 0.5 mg/kg, po administered as single dose measured immediately by ELISA method (reference value: 12.6+/-4.4 ng/mL); assay type: functional
Rattus norvegicus [17] = assay: Induction of growth hormone level in 6 week-old female Sprague-Dawley rat assessed as increase in body length at 2.5 mg/kg, po measured after 10 days; assay type: functional, organism-based; details: time 10.0 day
Rattus norvegicus [18] = assay: Induction of growth hormone level in 4 week-old male Sprague-Dawley rat assessed as increase in body weight at 2.5 mg/kg, po measured after 10 days; assay type: functional, organism-based; details: time 10.0 day
Rattus norvegicus [19] = assay: Induction of growth hormone level in 6 week-old male Sprague-Dawley rat assessed as increase in body weight at 2.5 mg/kg, po measured after 10 days; assay type: functional, organism-based; details: time 10.0 day
Rattus norvegicus [20] = species on record: Rattus norvegicus; assay: Induction of growth hormone level in 4 week-old Sprague-Dawley rat assessed as increase in body length measured after 10 days; assay type: functional, organism-based; details: time 10.0 day
[21] = Half life in male monkey at 2 mg/kg, po administered as single dose measured after 4 hrs; assay type: ADME, organism-based, Macaca mulatta; details: rhesus monkey, in vivo
[22] = Tmax in male monkey at 2 mg/kg, po administered as single dose measured after 4 hrs; assay type: ADME, organism-based, Macaca mulatta; details: rhesus monkey, in vivo
[23] = Clearance in male dog plasma at 0.5 mg/kg, iv administered as single dose measured after 4 hrs; assay type: ADME, organism-based, Canis lupus familiaris
[24] = Half life in male dog at 2 mg/kg, po administered as single dose measured after 4 hrs; assay type: ADME, organism-based, Canis lupus familiaris; details: in vivo
[25] = Metabolic stability in dog liver microsome assessed as hepatic clearance at 1 uM measured upto 60 mins in presence of NADPH by LC-MS/MS analysis; assay type: ADME, Canis lupus familiaris; details: liver microsomes, read-out: CLH
[26] = Metabolic stability in mouse liver microsome assessed as hepatic clearance at 1 uM measured upto 60 mins in presence of NADPH by LC-MS/MS analysis; assay type: ADME; details: liver microsomes, read-out: CLH
[27] = Plasma protein binding in mouse assessed as unbound fraction measured after 6 hrs by dialysis method; assay type: ADME, cell-free
Cytochrome P450 3A4 = Cytochrome P450 3A4 (Homo sapiens, UniProt P08684); assay: Inhibition of CYP3A4 in human liver microsome using midazolam as substrate incubated for 5 min in presence of NADPH by UPLC-MS/MS analysis; assay type: ADME, microsomes
Cytochrome P450 3A4, sequence (P08684 whole entry): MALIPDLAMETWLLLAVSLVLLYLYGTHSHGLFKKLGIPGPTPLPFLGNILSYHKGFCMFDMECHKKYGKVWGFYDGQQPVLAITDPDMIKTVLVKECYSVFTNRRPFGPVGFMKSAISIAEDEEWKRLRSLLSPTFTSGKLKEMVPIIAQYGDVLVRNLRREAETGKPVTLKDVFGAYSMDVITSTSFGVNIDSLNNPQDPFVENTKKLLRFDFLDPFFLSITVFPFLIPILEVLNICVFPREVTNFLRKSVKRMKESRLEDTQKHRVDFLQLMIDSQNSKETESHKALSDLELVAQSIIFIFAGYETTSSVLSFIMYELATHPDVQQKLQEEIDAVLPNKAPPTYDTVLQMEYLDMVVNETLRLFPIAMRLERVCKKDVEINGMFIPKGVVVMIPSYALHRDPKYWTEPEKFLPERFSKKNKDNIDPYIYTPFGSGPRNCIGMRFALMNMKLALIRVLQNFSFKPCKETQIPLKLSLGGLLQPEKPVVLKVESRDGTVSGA

[28] = molecular target: Voltage-gated inwardly rectifying potassium channel KCNH2 (Homo sapiens, UniProt Q12809); assay: Inhibition of human ERG expressed in HEK293 cells by patch clamp assay; assay type: toxicity, cell-based
Voltage-gated inwardly rectifying potassium channel KCNH2, sequence (Q12809 whole entry): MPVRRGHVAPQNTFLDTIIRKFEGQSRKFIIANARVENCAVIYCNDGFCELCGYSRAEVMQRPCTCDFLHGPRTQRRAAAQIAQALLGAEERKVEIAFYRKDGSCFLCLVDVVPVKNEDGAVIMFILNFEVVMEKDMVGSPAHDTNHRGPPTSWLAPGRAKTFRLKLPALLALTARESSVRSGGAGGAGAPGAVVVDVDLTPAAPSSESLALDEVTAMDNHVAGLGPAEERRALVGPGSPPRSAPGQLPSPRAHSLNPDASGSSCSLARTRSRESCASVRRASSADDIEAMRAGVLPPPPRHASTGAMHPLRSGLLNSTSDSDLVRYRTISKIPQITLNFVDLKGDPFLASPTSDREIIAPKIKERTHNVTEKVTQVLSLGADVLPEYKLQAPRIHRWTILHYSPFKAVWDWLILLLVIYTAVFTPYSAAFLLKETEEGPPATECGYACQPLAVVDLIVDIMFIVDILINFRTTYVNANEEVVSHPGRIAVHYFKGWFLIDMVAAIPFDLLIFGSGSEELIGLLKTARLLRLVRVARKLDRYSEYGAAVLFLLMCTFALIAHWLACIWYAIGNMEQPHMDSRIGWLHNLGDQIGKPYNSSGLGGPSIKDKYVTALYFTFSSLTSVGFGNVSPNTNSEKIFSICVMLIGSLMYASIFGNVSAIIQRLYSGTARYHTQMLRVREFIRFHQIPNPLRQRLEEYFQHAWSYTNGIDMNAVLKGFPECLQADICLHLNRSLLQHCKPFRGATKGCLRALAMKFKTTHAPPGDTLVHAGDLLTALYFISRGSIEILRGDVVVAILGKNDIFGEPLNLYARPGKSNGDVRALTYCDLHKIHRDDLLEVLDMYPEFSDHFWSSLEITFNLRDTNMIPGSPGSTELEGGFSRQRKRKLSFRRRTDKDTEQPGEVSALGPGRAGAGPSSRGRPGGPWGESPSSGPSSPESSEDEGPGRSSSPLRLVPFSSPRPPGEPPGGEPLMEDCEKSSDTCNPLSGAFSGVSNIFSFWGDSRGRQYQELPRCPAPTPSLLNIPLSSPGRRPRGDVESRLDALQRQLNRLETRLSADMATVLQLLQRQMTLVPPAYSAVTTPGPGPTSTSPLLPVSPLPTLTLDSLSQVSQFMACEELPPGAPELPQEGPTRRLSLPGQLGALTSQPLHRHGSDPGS

[29] = molecular target: T1, 5-hydroxytryptamine receptor 3A (Homo sapiens, UniProt P46098); assay: Inhibition of human HTR3A by fluorimetry analysis
T1 sequence (P46098 whole entry): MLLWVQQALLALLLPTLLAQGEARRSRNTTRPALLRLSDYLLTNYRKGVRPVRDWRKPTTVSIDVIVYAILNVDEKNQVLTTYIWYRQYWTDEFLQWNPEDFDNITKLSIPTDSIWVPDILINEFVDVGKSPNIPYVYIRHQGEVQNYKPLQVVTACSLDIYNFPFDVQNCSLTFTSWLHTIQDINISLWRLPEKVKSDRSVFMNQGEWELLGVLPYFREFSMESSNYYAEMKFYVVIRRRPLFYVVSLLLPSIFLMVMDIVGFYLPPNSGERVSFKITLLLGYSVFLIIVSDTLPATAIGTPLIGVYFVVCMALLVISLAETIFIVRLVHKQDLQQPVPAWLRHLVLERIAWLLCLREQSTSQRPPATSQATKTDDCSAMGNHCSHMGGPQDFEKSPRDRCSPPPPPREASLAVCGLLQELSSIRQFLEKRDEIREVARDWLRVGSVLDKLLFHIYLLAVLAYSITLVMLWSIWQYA

[30] = Toxicity in Sprague-Dawley rat assessed as effect on lymphocyte containing white pulp around central arteriole at 10 to 100 mg/kg, po administered once daily for 14 days by H&E staining based analysis; assay type: organism-based; details: in vivo, 336 h, dose 10-100 mg/kg, time 14 day

With `CC(C)(N)C(=O)N[C@H](COCc1ccccc1)C(=O)N1CCC2=NN(C3CC3)C(=O)[C@]2(Cc2ccccc2)C1` the EC50 [1] was 7 pM, the half-life [2] was 1.07 h and the Vd [3] was 2.65 L/kg. For the same compound, the Activity (Rattus norvegicus [4]) was 31.1 ng/mL, the Activity (Rattus norvegicus [5]) was 37.8 ng/mL and the Activity (Rattus norvegicus [6]) was 200.8 ng/mL. For the same compound, the Activity (Rattus norvegicus [7]) was 217.8 ng/mL, the Activity (Rattus norvegicus [8]) was 32.3 ng/mL and the Activity (Rattus norvegicus [9]) was 27.2 ng/mL. For the same compound, the Activity (Rattus norvegicus [10]) was 56.7 ng/mL, the AUC (Rattus norvegicus [11]) was 110 ng·h/mL and the Activity (Rattus norvegicus [12]) was 21.2 ng/mL. The Activity (Rattus norvegicus [13]) was 74.5 ng/mL, the AUC (Rattus norvegicus [14]) was 62.8 ng·h/mL and the Activity (Rattus norvegicus [15]) was 228.6 ng/mL. For the same compound, the Activity (Rattus norvegicus [16]) was 14 ng/mL, the Activity (Rattus norvegicus [17]) was “Active” and the Activity (Rattus norvegicus [18]) was “Active”. The Activity (Rattus norvegicus [19]) was “Active”, the Activity (Rattus norvegicus [20]) was “Dose-dependent-effect” and the half-life [21] was 1.02 h. It also gave a Tmax [22] of 1.33 h, a clearance [23] of 35 mL/min/kg and a half-life [24] of 1.19 h. For the same compound, the CLint scaled at 1 µM [25] was 237 mL/min/kg, the CLint scaled at 1 µM [26] was 1370 mL/min/kg and the fraction unbound at 6 h [27] was 0.621. The IC50 (Cytochrome P450 3A4) was over 30 µM, the IC50 [28] was over 30 µM and the IC50 [29] was 3.06 µM. The Activity [30] was “Non-toxic”.
